T/C data for 22 compounds are collected here from PubChem BioAssay AID248 (DTP/NCI, 2004).

Where “and” joins values, the source holds several entries; their conditions need not be identical. Equal values may be shown once. Inconclusive results and toxic doses are left out.

The test system of the experiment is L1210 leukemia ip in BDF1 mice, survival T/C. Description: NCI In Vivo Anticancer Drug Screen. Data for tumor model L1210 Leukemia (intraperitoneal) in B6D2F1 (BDF1) mice. Particulars: endpoint: mean survival time, higher = longer survival. The method, boiled down: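 Transplanted-tumor mice were given test agent; controls received vehicle only. Survival readings from the two groups were divided (treated over control).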

Where [1] appears, read: dose: 75.0 mg/kg/injection, schedule: Q01DX001 (ip), vehicle: carboxymethylcellulose (CMC).
The mark [2] stands for this setting: dose: 150.0 mg/kg/injection, schedule: Q01DX001 (ip), vehicle: carboxymethylcellulose (CMC).
[3] abbreviates: dose: 100.0 mg/kg/injection, schedule: Q04DX003 (ip), vehicle: saline.
Setting [4] is: dose: 200.0 mg/kg/injection, schedule: Q04DX003 (ip), vehicle: saline.
Setting [5] is: dose: 100.0 mg/kg/injection, schedule: Q04DX003 (ip), vehicle: Klucel (hydroxypropylcellulose) (HPC).
Where [6] appears, read: dose: 200.0 mg/kg/injection, schedule: Q04DX003 (ip), vehicle: Klucel (hydroxypropylcellulose) (HPC).
The mark [7] stands for this setting: dose: 400.0 mg/kg/injection, schedule: Q04DX003 (ip), vehicle: Klucel (hydroxypropylcellulose) (HPC).
The mark [8] stands for this setting: dose: 100.0 mg/kg/injection, schedule: Q01DX009 (ip), vehicle: Klucel (hydroxypropylcellulose) (HPC).
Where [9] appears, read: dose: 200.0 mg/kg/injection, schedule: Q01DX009 (ip), vehicle: Klucel (hydroxypropylcellulose) (HPC).
Setting [10] is: dose: 400.0 mg/kg/injection, schedule: Q01DX009 (ip), vehicle: Klucel (hydroxypropylcellulose) (HPC).
[11] abbreviates: dose: 100.0 mg/kg/injection, schedule: Q01DX009 (ip), vehicle: saline with Tween-80.
The mark [12] stands for this setting: dose: 200.0 mg/kg/injection, schedule: Q01DX009 (ip), vehicle: saline with Tween-80.

In the case of `N#Cc1c(/N=C/c2cc(Cl)cc(Cl)c2O)sc2c1CCC2`, the T/C is 95 % of control (dose: 100.0 mg/kg/injection, schedule: Q04DX002 (ip), vehicle: saline with Tween-80); 113 % of control (dose: 200.0 mg/kg/injection, schedule: Q04DX002 (ip), vehicle: saline with Tween-80); 91 % of control (dose: 400.0 mg/kg/injection, schedule: Q04DX002 (ip), vehicle: saline with Tween-80).
On to `C(=C\c1cccc2ccccc12)/c1ccncc1`, for which the T/C was 97 % of control under setting [1]; 88 % of control under setting [2]; 90 % of control (dose: 300.0 mg/kg/injection, schedule: Q01DX001 (ip), vehicle: carboxymethylcellulose (CMC)).
For the compound `CC(=O)O[C@H]1CCCC[C@@H]1NC(=O)N(CCCl)N=O`, the T/C reads like this: (dose: 4.4 mg/kg/injection, schedule: Q01DX001 (ip), vehicle: carboxymethylcellulose (CMC)) 118 % of control; (dose: 6.7 mg/kg/injection, schedule: Q01DX001 (ip), vehicle: carboxymethylcellulose (CMC)) 175 % of control; (dose: 10.0 mg/kg/injection, schedule: Q01DX001 (ip), vehicle: carboxymethylcellulose (CMC)) 194 % of control; (dose: 15.0 mg/kg/injection, schedule: Q01DX001 (ip), vehicle: carboxymethylcellulose (CMC)) 313 % of control and 338 % of control; (dose: 27.0 mg/kg/injection, schedule: Q01DX001 (ip), vehicle: carboxymethylcellulose (CMC)) 446 % of control; (dose: 40.0 mg/kg/injection, schedule: Q01DX001 (ip), vehicle: carboxymethylcellulose (CMC)) 404 % of control. Besides, for the setting “dose: 60.0 mg/kg/injection, schedule: Q01DX001 (ip), vehicle: carboxymethylcellulose (CMC)”, the T/C is 196 % of control.
In the case of `COc1ccccc1NC(=O)C(N=Nc1ccc(S(=O)(=O)Nc2onc(C)c2C)cc1)C(C)=O` (configuration not stated), the T/C runs as follows: (dose: 75.0 mg/kg/injection, schedule: Q01DX001 (ip), vehicle: saline) 92 % of control; (dose: 150.0 mg/kg/injection, schedule: Q01DX001 (ip), vehicle: saline) 94 % of control; (dose: 300.0 mg/kg/injection, schedule: Q01DX001 (ip), vehicle: saline) 87 % of control.
Turning to `COc1ncnc2c1ncn2C1CC(CO)C(O)C1O` (configuration not stated), the T/C (dose: 25.0 mg/kg/injection, schedule: Q01DX009 (ip), vehicle: saline) was 102 % of control; the T/C (dose: 50.0 mg/kg/injection, schedule: Q01DX009 (ip), vehicle: saline) is 95 % of control; the T/C (dose: 100.0 mg/kg/injection, schedule: Q01DX009 (ip), vehicle: saline) is 91 % of control.
`OCC1CCCN2CCCCC12` (configuration not stated): the T/C reads like this: under setting [3], 98 % of control; under setting [4], 90 % of control.
Turning to `CCCCCCC(O)CO` (configuration not stated), the T/C under setting [3] was 105 % of control; the T/C under setting [4] was 112 % of control; the T/C (dose: 400.0 mg/kg/injection, schedule: Q04DX003 (ip), vehicle: saline) is 109 % of control.
`COc1cc2c(cc1OC)C1(C(=O)c3ccc(OC)c(OC)c3C1=O)N(C(C)=O)C=C2` (configuration not stated): the T/C reads like this: (dose: 12.5 mg/kg/injection, schedule: Q01DX009 (ip), vehicle: Klucel (hydroxypropylcellulose) (HPC)) 95 % of control; (dose: 25.0 mg/kg/injection, schedule: Q01DX009 (ip), vehicle: Klucel (hydroxypropylcellulose) (HPC)) 103 % of control; (dose: 50.0 mg/kg/injection, schedule: Q01DX009 (ip), vehicle: Klucel (hydroxypropylcellulose) (HPC)) 100 % of control.
On to `O=[N+]([O-])c1cc([As](=O)(O)O)ccc1O`, for which the T/C (dose: 6.25 mg/kg/injection, schedule: Q04DX003 (ip), vehicle: saline) is 100 % of control; the T/C (dose: 12.5 mg/kg/injection, schedule: Q04DX003 (ip), vehicle: saline) was 100 % of control; the T/C (dose: 25.0 mg/kg/injection, schedule: Q04DX003 (ip), vehicle: saline) is 92 % of control and 100 % of control; the T/C (dose: 50.0 mg/kg/injection, schedule: Q04DX003 (ip), vehicle: saline) is 106 % of control; the T/C under setting [3] was 105 % of control.
Take `CSc1ncnc2c1ncn2/N=C/C1OC(C)OCC1O` (configuration not stated): the T/C is 93 % of control under setting [5], 98 % of control under setting [6] and 98 % of control under setting [7].
As to `OC1(c2ccccc2)C2=CC(c3ccccc3)=C(c3ccccc3)CC2C(c2ccccc2)C1c1ccccc1` (configuration not stated), the T/C is 100 % of control (dose: 100.0 mg/kg/injection, schedule: Q01DX001 (ip), vehicle: saline with Tween-80); 91 % of control (dose: 200.0 mg/kg/injection, schedule: Q01DX001 (ip), vehicle: saline with Tween-80); 96 % of control (dose: 400.0 mg/kg/injection, schedule: Q01DX001 (ip), vehicle: saline with Tween-80).
As for `CC(C)(C)OC(=O)C1=CNCCC1`, the T/C is, setting by setting: (dose: 100.0 mg/kg/injection, schedule: Q01DX001 (ip), vehicle: saline) 102 % of control; under setting [3], 106 % of control; (dose: 200.0 mg/kg/injection, schedule: Q01DX001 (ip), vehicle: saline) 94 % of control; under setting [4], 98 % of control; (dose: 400.0 mg/kg/injection, schedule: Q01DX001 (ip), vehicle: saline) 105 % of control.
Take `CC(=O)Nc1c(Br)cc2c(c1Br)Cc1cc(N=Cc3ccc4c(c3)OCO4)ccc1-2`: the T/C runs as follows: (dose: 100.0 mg/kg/injection, schedule: Q01DX001 (ip), vehicle: other) 100 % of control; (dose: 200.0 mg/kg/injection, schedule: Q01DX001 (ip), vehicle: other) 94 % of control; (dose: 400.0 mg/kg/injection, schedule: Q01DX001 (ip), vehicle: other) 103 % of control.
Turning to `O=C(N=C1C=CC(=NC(=O)OCc2ccccc2)C=C1)OCc1ccccc1`, the T/C under setting [8] is 98 % of control; the T/C under setting [5] is 92 % of control; the T/C under setting [9] is 100 % of control; the T/C under setting [6] is 88 % of control; the T/C under setting [10] was 100 % of control; the T/C under setting [7] is 90 % of control.
Regarding `C[C@]12CC[C@@H]3c4ccc(O)c([N+](=O)[O-])c4CC[C@H]3[C@@H]1CCC2=O`, the T/C runs as follows: under setting [8], 97 % of control; under setting [9], 92 % of control.
As for `Cc1cnc(SCc2ccc(Cl)cc2)nc1N(Cc1ccccc1)Cc1ccccc1`, the T/C (dose: 100.0 mg/kg/injection, schedule: Q01DX Z (ip), vehicle: methylcellulose (MC)) was 87 % of control.
Consider `O=c1[nH][nH]c(=O)c2c1CCCC2`, for which the T/C runs as follows: (dose: 50.0 mg/kg/injection, schedule: Q01DX009 (ip), vehicle: saline with Tween-80) 98 % of control; under setting [11], 95 % of control; under setting [12], 109 % of control.
Take `NC(CC(=O)O)c1nn[nH]n1` (configuration not stated): the T/C under setting [11] was 102 % of control; the T/C (dose: 100.0 mg/kg/injection, schedule: Q04DX003 (ip), vehicle: saline with Tween-80) was 105 % of control; the T/C under setting [12] is 98 % of control; the T/C (dose: 200.0 mg/kg/injection, schedule: Q04DX003 (ip), vehicle: saline with Tween-80) is 102 % of control; the T/C (dose: 400.0 mg/kg/injection, schedule: Q04DX003 (ip), vehicle: saline with Tween-80) is 103 % of control.
As to `CC(=O)CC(=O)N(C)c1ccccc1`, the T/C is, setting by setting: under setting [1], 104 % of control; under setting [2], 105 % of control.
`O=C1NC(=O)/C(=C\c2ccc3c(c2)OCO3)S1`: the T/C was 96 % of control (dose: 2.5 mg/kg/injection, schedule: Q01DX009 (ip), vehicle: saline with Tween-80); 91 % of control (dose: 5.0 mg/kg/injection, schedule: Q01DX009 (ip), vehicle: saline with Tween-80); 89 % of control (dose: 10.0 mg/kg/injection, schedule: Q01DX009 (ip), vehicle: saline with Tween-80).
With `CC(=O)OCC1C2c3ccccc3C(c3ccccc32)C1CBr` (configuration not stated), the T/C by setting is: under setting [8], 91 % of control; under setting [5], 93 % of control; under setting [9], 94 % of control; under setting [6], 94 % of control; under setting [10], 88 % of control; under setting [7], 98 % of control.
`NC(Cc1ccccc1)c1ccc2oc3ccccc3c2c1` (configuration not stated): the T/C (dose: 100.0 mg/kg/injection, schedule: Q01DX001 (ip), vehicle: Klucel (hydroxypropylcellulose) (HPC)) was 96 % of control; the T/C (dose: 200.0 mg/kg/injection, schedule: Q01DX001 (ip), vehicle: Klucel (hydroxypropylcellulose) (HPC)) was 100 % of control; the T/C (dose: 400.0 mg/kg/injection, schedule: Q01DX001 (ip), vehicle: Klucel (hydroxypropylcellulose) (HPC)) was 103 % of control.
